Source: paper PMC8131363 (Scientific Reports, 2021)
Read-outs that look alike come from different tables or passages of the source. Blank lines part the entries; values can stand above or below the compound they belong to.

What was measured:
cCaSR [1] = molecular target: T1, cCaSR (Felis catus, UniProt C7FF08)
T1 sequence (C7FF08 1-1081): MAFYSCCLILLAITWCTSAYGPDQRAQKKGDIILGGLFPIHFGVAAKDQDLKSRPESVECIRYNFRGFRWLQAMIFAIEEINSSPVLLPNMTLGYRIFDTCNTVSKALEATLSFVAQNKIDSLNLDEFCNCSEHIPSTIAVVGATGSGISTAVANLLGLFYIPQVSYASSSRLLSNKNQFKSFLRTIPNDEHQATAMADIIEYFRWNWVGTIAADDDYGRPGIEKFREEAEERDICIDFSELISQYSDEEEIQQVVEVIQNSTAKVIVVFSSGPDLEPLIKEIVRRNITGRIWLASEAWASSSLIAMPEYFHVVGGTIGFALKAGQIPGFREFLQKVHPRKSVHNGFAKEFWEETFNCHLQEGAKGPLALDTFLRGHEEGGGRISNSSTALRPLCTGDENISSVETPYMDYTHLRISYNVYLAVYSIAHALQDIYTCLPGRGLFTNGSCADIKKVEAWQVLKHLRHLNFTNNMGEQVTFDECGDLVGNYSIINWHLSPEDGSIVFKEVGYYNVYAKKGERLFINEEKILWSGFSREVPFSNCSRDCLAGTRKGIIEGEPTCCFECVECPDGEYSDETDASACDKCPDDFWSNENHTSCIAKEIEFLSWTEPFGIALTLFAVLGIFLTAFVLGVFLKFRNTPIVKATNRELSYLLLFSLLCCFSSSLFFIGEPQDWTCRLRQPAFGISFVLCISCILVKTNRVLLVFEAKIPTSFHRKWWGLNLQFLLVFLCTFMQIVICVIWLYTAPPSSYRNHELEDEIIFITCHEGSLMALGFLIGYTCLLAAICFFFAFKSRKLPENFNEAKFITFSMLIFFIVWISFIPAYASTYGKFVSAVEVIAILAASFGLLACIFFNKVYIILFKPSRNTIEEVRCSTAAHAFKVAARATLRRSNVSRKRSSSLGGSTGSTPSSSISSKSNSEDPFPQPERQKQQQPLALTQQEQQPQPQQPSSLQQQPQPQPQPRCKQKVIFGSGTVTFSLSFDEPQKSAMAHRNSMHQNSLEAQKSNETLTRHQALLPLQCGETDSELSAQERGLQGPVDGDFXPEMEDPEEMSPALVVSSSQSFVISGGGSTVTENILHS

cCaSR [2] = molecular target: T1, cCaSR; assay: cCaSR PAM luminescence assay, double injection with 0.5 mM CaCl2, HEK293/T-REx/natClytin-cCaSR; details: for EC50: read-out: EC50 PAM, positive allosteric modulator, presence of Ca2+
[3] = Supplementary Table I, agonist assay, dash = no activity
[4] = Supplementary Table I, PAM assay, dash = no activity
[5] = read-out: cCaSR activity, agonist assay, stable inducible cCaSR line, at least three wells
[6] = agonist assay, stable inducible cCaSR line, > 0.01 M = maximal response not reached
[7] = read-out: EC50 Ago, Supplementary Table I, agonist assay, > 0.01 M = maximal response not reached

- EC50 Ago (M) (cCaSR [1]; [3]): -
- EC50 PAM (M) (cCaSR [2]; [4]): -
Compound: OC[C@H]1O[C@H](O[C@]2(CCl)O[C@H](CCl)[C@@H](O)[C@@H]2O)[C@H](O)[C@@H](O)[C@H]1Cl [Sucralose]

- EC50 Ago (M) (cCaSR [1]; [3]): -
- EC50 PAM (M) (cCaSR [2]; [4]): -
Compound: N[C@@H](CCC(=O)NCC(=O)NCC(=O)O)C(=O)O [γ-Glu-Gly-Gly]

- EC50 Ago (M) (cCaSR [1]; [3]): -
- EC50 PAM (M) (cCaSR [2]; [4]): -
Compound: O=C(O)[C@@H]1CNCCN1 [S-piperazine-2-carboxylic acid]

- EC50 Ago (M) (cCaSR [1]; [3]): -
- EC50 PAM (M) (cCaSR [2]; [4]): -
Compound: NC[C@H](N)C(=O)O [S-2,3-diaminopropanoic acid]

- EC50 Ago (M) (cCaSR [1]; [3]): -
- EC50 PAM (M) (cCaSR [2]; [4]): -
Compound: CC1(C)N[C@H](C(=O)O)Cc2c1[nH]c1ccccc21 [S-1,1-dimethyl-2,3,4,9-tetrahydro-1H-pyrido[3,4-b]indole-3-carboxylic acid]

- EC50 Ago (M) (cCaSR [1]; [3]): -
- EC50 PAM (M) (cCaSR [2]; [4]): -
Compound: O.O.O.O.O.O.O.O.O.O.O=P([O-])([O-])OP(=O)([O-])[O-].[Na+].[Na+].[Na+].[Na+] [Sodium pyrophosphate tetrabasic decahydrate]

- EC50 Ago (M) (cCaSR [1]; [3]): -
- EC50 PAM (M) (cCaSR [2]; [4]): -
Compound: COC(=O)[C@@H](N)CCCNC(N)=N[N+](=O)[O-] [NG-Nitro-L-Arginine Methyl Ester]

- EC50 (cCaSR [1]; [6]): 1290 µM
- EC50 (cCaSR [1]; [7]): 1290 µM
- EC50 PAM (M) (cCaSR [2]; [4]): -
Compound: O=P(O)(O)CP(=O)(O)O [Methylenediphosphonic acid]

- EC50 Ago (M) (cCaSR [1]; [3]): -
- EC50 PAM (M) (cCaSR [2]; [4]): -
Compound: NCCS(=O)(=O)O [Taurine]

- EC50 Ago (M) (cCaSR [1]): -
- EC50 PAM (M) (cCaSR [2]): -
Compound: NCCNCCCNCCN [N,N'-Bis(2-aminoethyl)-1,3-propanediamine]

- EC50 (cCaSR [1]; [6]): 398 µM
- EC50 (cCaSR [1]; [7]): 398 µM
- EC50 (cCaSR [1]; [5]): < 1000 µM
- EC50 PAM (M) (cCaSR [2]; [4]): -
Compound: O=S(=O)([O-])C(F)(F)F.O=S(=O)([O-])C(F)(F)F.O=S(=O)([O-])C(F)(F)F.[Pr+3] [Pr^3+, Praseodymium(III) trifluoromethanesulfonate]

- EC50 Ago (M) (cCaSR [1]; [3]): -
- EC50 PAM (M) (cCaSR [2]; [4]): -
Compound: CN(C)C(N)=NCCC[C@H](N)C(=O)O.Cl.Cl [NG,NG-Dimethylarginine dihydrochloride]

- EC50 Ago (M) (cCaSR [1]; [3]): -
- EC50 PAM (M) (cCaSR [2]; [4]): -
Compound: NCCCC[C@H](NC(=O)C[C@H](N)C(=O)O)C(=O)O [β-Asp-Lys]

- EC50 Ago (M) (cCaSR [1]; [3]): -
- EC50 PAM (M) (cCaSR [2]; [4]): -
Compound: N[C@@H](CCC(=O)N[C@@H](Cc1cnc[nH]1)C(=O)O)C(=O)O [γ-Glu-His]

The next lines start with the compound.

Compound: N[C@@H](CS)C(=O)O [L-Cysteine]
- EC50 Ago (M) (cCaSR [1]; [3]): -
- EC50 PAM (M) (cCaSR [2]; [4]): -

Compound: N[C@@H](C[Se][Se]C[C@H](N)C(=O)O)C(=O)O.O [L-Selenocystine monohydrate]
- EC50 Ago (M) (cCaSR [1]; [3]): -
- EC50 PAM (M) (cCaSR [2]; [4]): -

Compound: NCC(=O)O [Glycine]
- EC50 Ago (M) (cCaSR [1]; [3]): -
- EC50 PAM (M) (cCaSR [2]; [4]): -

Compound: N[C@@H](Cc1c[nH]cn1)C(=O)O [L-Histidine]
- EC50 Ago (M) (cCaSR [1]; [3]): -
- EC50 PAM (M) (cCaSR [2]; [4]): -

Compound: NC(=O)CC[C@H](N)C(=O)O [L-Glutamine]
- EC50 Ago (M) (cCaSR [1]; [3]): -
- EC50 PAM (M) (cCaSR [2]; [4]): -

Compound: CC(NCC1Cc2ccccc2O1)c1ccc2ccccc2n1 (stereo not drawn) [Enamine Screening - Z1437387381]
- EC50 Ago (M) (cCaSR [1]; [3]): -
- EC50 (cCaSR [2]; Supplementary Table I): 9.01 µM

Compound: N[C@@H](CO)C(=O)O [L-Serine]
- EC50 Ago (M) (cCaSR [1]; [3]): -
- EC50 PAM (M) (cCaSR [2]; [4]): -

Compound: c1ccc(C2CCN(C3CCCc4ccccc43)C2)cc1 (stereo not drawn) [Enamine Screening - Z1627256025]
- EC50 Ago (M) (cCaSR [1]; [3]): -
- EC50 (cCaSR [2]; Supplementary Table I): 797 µM

Compound: C[C@](N)(CC(=O)O)C(=O)O [(S)-a-Methylaspartic acid, (S)-α-Methylaspartic acid]
- EC50 Ago (M) (cCaSR [1]; [3]): -
- EC50 PAM (M) (cCaSR [2]; [4]): -

Compound: COc1ccc(C2C(CNC(C)c3ccncc3)CCN2C)cc1 (stereo not drawn) [Enamine Screening - Z1563602968]
- EC50 Ago (M) (cCaSR [1]; [3]): -
- EC50 PAM (M) (cCaSR [2]; [4]): -

Compound: COc1ccc(CCC(C)NC2CCOc3ccccc32)cc1O (stereo not drawn) [Enamine Screening - Z1857407854]
- EC50 Ago (M) (cCaSR [1]; [3]): -
- EC50 (cCaSR [2]; Supplementary Table I): 5.5 µM

Compound: O=C(O)[C@@H]1CCCN1 [L-Proline]
- EC50 Ago (M) (cCaSR [1]; [3]): -
- EC50 PAM (M) (cCaSR [2]; [4]): -

Compound: O=C(O)c1cc2c(cn1)[nH]c1ccccc12 [9H-pyrido[3,4-b]indole-3-carboxylic acid]
- EC50 Ago (M) (cCaSR [1]; [3]): -
- EC50 PAM (M) (cCaSR [2]; [4]): -

Compound: Poly-L-lysine
- EC50 (cCaSR [1]; [5]): > 10000 µM
- EC50 PAM (M) (cCaSR [2]; [4]): -

Compound: COc1c(C)cc(C(=O)CC#N)cc1C [3,5-Dimethyl-4-methoxybenzoylacetonitrile]
- EC50 Ago (M) (cCaSR [1]; [3]): -
- EC50 PAM (M) (cCaSR [2]; [4]): -

Compound: CC(C)[C@H](N)P(=O)(O)O [(1R)-(+)-(1-Amino-2-methylpropyl)phosphonic acid]
- EC50 Ago (M) (cCaSR [1]): -
- EC50 PAM (M) (cCaSR [2]): -

Compound: N[C@@H](Cc1ccc(O)cc1)C(=O)O [L-Tyrosine]
- EC50 Ago (M) (cCaSR [1]; [3]): -
- EC50 PAM (M) (cCaSR [2]; [4]): -

Compound: OC[C@H]1OC(O)[C@H](O)[C@@H](O)[C@@H]1O (stereo partly drawn) [D-( +)-Glucose, D-(+)-Glucose]
- EC50 Ago (M) (cCaSR [1]; [3]): -
- EC50 PAM (M) (cCaSR [2]; [4]): -

Compound: NC(N)=NCCC[C@@H](N)C(=O)O [D-Arginine]
- EC50 Ago (M) (cCaSR [1]; [3]): -
- EC50 PAM (M) (cCaSR [2]; [4]): -

Compound: NC[C@H]1O[C@H](O[C@H]2[C@H](O)[C@@H](O[C@H]3O[C@H](CO)[C@@H](O)[C@H](N)[C@H]3O)[C@H](N)C[C@@H]2N)[C@H](O)[C@@H](O)[C@@H]1O [Kanamycin solution, Kanamycin, reference compound]
- EC50 Ago (M) (cCaSR [1]; [3]): -
- EC50 PAM (M) (cCaSR [2]; [4]): -

Compound: CN[C@H]1C[C@@H](N)[C@H](O)[C@@H](O[C@@H]2O[C@H](CO)[C@H](O)[C@@H]3OC4(O[C@H]23)O[C@H]([C@@H](N)CO)[C@H](O)[C@H](O)[C@H]4O)[C@@H]1O (stereo partly drawn) [Hygromycin B, reference compound]
- EC50 Ago (M) (cCaSR [1]; [3]): -
- EC50 PAM (M) (cCaSR [2]; [4]): -

Compound: C[C@@H](N[C@H]1CCCC[C@@H]1NC(=O)c1ccc(Cl)cc1)c1cccc2ccccc12 [Calhex 231, reference compound]
- EC50 Ago (M) (cCaSR [1]; [3]): -
- EC50 PAM (M) (cCaSR [2]; [4]): -

Compound: COC(=O)C(NC1CCc2c(F)cccc21)c1cccc(C#N)c1 (stereo not drawn) [Enamine Screening - Z1362199910]
- EC50 Ago (M) (cCaSR [1]; [3]): -
- EC50 (cCaSR [2]; Supplementary Table I): 58.9 µM

Compound: CC(C)[C@H](N)C(=O)O [L-Valine]
- EC50 Ago (M) (cCaSR [1]; [3]): -
- EC50 PAM (M) (cCaSR [2]; [4]): -

Compound: Cc1ccc(C(C)NC(C)c2cc3ccccc3[nH]2)cc1C (stereo not drawn) [Enamine Screening - Z1592615858]
- EC50 Ago (M) (cCaSR [1]; [3]): -
- EC50 (cCaSR [2]; Supplementary Table I): 1.92 µM

Compound: C[C@H](N)C(=O)O [L-Alanine]
- EC50 Ago (M) (cCaSR [1]; [3]): -
- EC50 PAM (M) (cCaSR [2]; [4]): -

Compound: N=C(N)NCCC[C@H](N)C(=O)O [L-Arginine]
- EC50 Ago (M) (cCaSR [1]): -
- EC50 PAM (M) (cCaSR [2]): -

Compound: COc1cc(C(O)(c2nc3ccccc3s2)C(F)(F)F)c(OC)cc1N (stereo not drawn) [Enamine Screening - Z317045236]
- EC50 Ago (M) (cCaSR [1]; [3]): -
- EC50 (cCaSR [2]; Supplementary Table I): 2.42 µM

Compound: N[C@@H](CCO)C(=O)O [L-Homoserine]
- EC50 Ago (M) (cCaSR [1]; [3]): -
- EC50 PAM (M) (cCaSR [2]; [4]): -

Compound: COC(=O)[C@@H](N)CCCN=C(N)N [L-Arginine methyl ester]
- EC50 Ago (M) (cCaSR [1]; [3]): -
- EC50 PAM (M) (cCaSR [2]; [4]): -

Compound: C[C@@H](O)[C@H](N)C(=O)O [L-Threonine]
- EC50 Ago (M) (cCaSR [1]; [3]): -
- EC50 PAM (M) (cCaSR [2]; [4]): -
